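Results reflect a 48-hour exposure of cells in 96-well plates to compound at five concentrations. The concentration for 50% growth inhibition is given as GI50.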 Active and inactive are the calls of the source. Rule as the data show it: active = GI50 up to about 1.1 µM and inactive = higher.
Legend:
Experiment in all cases: NCI tumour cell line growth inhibition, 48 h
786-0 = tested on: 786-0
A498 = tested on: A498
A549 = tested on: A549
ACHN = tested on: ACHN
BT-549 = tested on: BT-549
CAKI-1 = tested on: CAKI-1
CCRF-CEM = tested on: CCRF-CEM
COLO 205 = tested on: COLO 205
DU-145 = tested on: DU-145
EKVX = tested on: EKVX
HCC 2998 = tested on: HCC 2998
HCT-116 = tested on: HCT-116
HCT-15 = tested on: HCT-15
HL-60 = tested on: HL-60
HOP-62 = tested on: HOP-62
HOP-92 = tested on: HOP-92
HT-29 = tested on: HT-29
Hs-578T = tested on: Hs-578T
IGROV-1 = tested on: IGROV-1
K562 = tested on: K562
KM12 = tested on: KM12
LOX IMVI = tested on: LOX IMVI
M14 = tested on: M14
MCF7 = tested on: MCF7
MDA-MB-231 = tested on: MDA-MB-231
MDA-MB-435 = tested on: MDA-MB-435
MDA-N = tested on: MDA-N
MOLT-4 = tested on: MOLT-4
Malme-3M = tested on: Malme-3M
NCI-H226 = tested on: NCI-H226
NCI-H23 = tested on: NCI-H23
NCI-H460 = tested on: NCI-H460
NCI-H522 = tested on: NCI-H522
NCI/ADR-RES = tested on: NCI/ADR-RES
OVCAR-3 = tested on: OVCAR-3
OVCAR-4 = tested on: OVCAR-4
OVCAR-5 = tested on: OVCAR-5
OVCAR-8 = tested on: OVCAR-8
PC-3 = tested on: PC-3
RPMI-8226 = tested on: RPMI-8226
RXF 393 = tested on: RXF 393
SF-268 = tested on: SF-268
SF-295 = tested on: SF-295
SF-539 = tested on: SF-539
SK-MEL-28 = tested on: SK-MEL-28
SK-MEL-2 = tested on: SK-MEL-2
SK-MEL-5 = tested on: SK-MEL-5
SK-OV-3 = tested on: SK-OV-3
SN12C = tested on: SN12C
SNB-19 = tested on: SNB-19
SNB-75 = tested on: SNB-75
SR = tested on: SR
SW-620 = tested on: SW-620
T47D = tested on: T47D
TK-10 = tested on: TK-10
U-251 = tested on: U-251
UACC-257 = tested on: UACC-257
UACC-62 = tested on: UACC-62
UO-31 = tested on: UO-31

Measured: GI50

CNC1C(=O)C(C)C(O)(C(CC(C)C(O)/C=C/C=C/CNC(=O)C(C)(C)C(O)\C(C)=C/C=C\C=C\Cc2cnc(C)o2)OC)C12C(=O)OC2C.CNC1C(=O)C(C)C(O)(C(CC(C)C(O)/C=C/C=C/CNC(=O)C(C)(C)C(O)\C(C)=C/C=C\C=C\Cc2cnc(C)o2)OC)C12C(=O)OC2COC (centres undefined)
active: A549 0.78 µM | CCRF-CEM 0.614 µM | COLO 205 0.778 µM | EKVX 0.292 µM | HL-60 0.635 µM | IGROV-1 0.931 µM | K562 0.181 µM | MCF7 0.354 µM | NCI-H226 0.668 µM | NCI-H23 0.218 µM | NCI-H522 0.565 µM | OVCAR-4 0.345 µM | OVCAR-8 0.459 µM | PC-3 0.237 µM | RPMI-8226 0.711 µM | SF-295 0.528 µM | SK-MEL-5 0.191 µM | SNB-75 0.942 µM | T47D 0.202 µM | UACC-257 0.188 µM
21 µM: HCT-15
inactive: 786-0 18.5 µM | A498 28.4 µM | ACHN 3.3 µM | BT-549 25.1 µM | CAKI-1 31.8 µM | DU-145 31.5 µM | HCC 2998 13.3 µM | HCT-116 15.1 µM | HOP-62 8.43 µM | HOP-92 2.72 µM | HT-29 3.27 µM | Hs-578T 12.4 µM | KM12 7.01 µM | LOX IMVI 14.2 µM | M14 7.46 µM | MDA-MB-231 26.9 µM | MDA-MB-435 16 µM | MDA-N 15 µM | MOLT-4 8.85 µM | Malme-3M 9.04 µM | NCI-H460 15.2 µM | NCI/ADR-RES 15.9 µM | OVCAR-3 1.56 µM | OVCAR-5 20.6 µM | RXF 393 17.3 µM | SF-268 5.68 µM | SF-539 23.2 µM | SK-MEL-28 23.1 µM | SK-MEL-2 5.94 µM | SK-OV-3 19 µM | SN12C 10.9 µM | SNB-19 19.9 µM | SR 15.1 µM | SW-620 8.65 µM | TK-10 11.9 µM | U-251 1.15 µM | UACC-62 13.3 µM | UO-31 10.5 µM

From ChEMBL document CHEMBL1201862, “PubChem BioAssay data set” (2004)
